From article PMC9202851, “Antitubercular activity assessment of fluorinated chalcones, 2-aminopyridine-3-carbonitrile and 2-amino-4H-pyran-3-carbonitrile derivatives: In vitro, molecular docking and in-silico drug likeliness studies” (PLoS ONE, 2022)
Values after ≈ are worked out from the molar mass of the structure shown. Where two headings read alike, the source gives them in different places.

What was measured:
[1] = test system: Mycobacterium tuberculosis H37RV; assay: In vitro antitubercular activity by MABA (Alamar Blue); assay type: cell-based; details: for MIC: read-out: H37RV MIC
MTT cytotoxicity assay = assay type: cell-based; details: LO2 normal liver cells, human normal liver cells (L02), mean of three experiments
[2] = Mycobacterium tuberculosis H37RV, MABA, Middlebrook 7H9 broth, 37°C five days
[3] = Mycobacterium tuberculosis, H37RV, 120 h, Mycobacterium tuberculosis H37RV, MABA, Middlebrook 7H9 broth, 37°C five days

In the case of O=C(O)c1cn(C2CC2)c2cc(N3CCNCC3)c(F)cc2c1=O [Ciprofloxacin, reference compound], the MIC [1, 2] is reported as 9 µM (≈ 2.98 µg/mL) and the MIC [1, 3] is reported as ~9 µM (≈ 2.98 µg/mL).

With O=C(/C=C/c1ccccc1Cl)c1ccc(C(F)(F)F)cc1 [Compound 1] the MIC [1, 3] was 40 µM (≈ 12.4 µg/mL).

O=C(/C=C/c1cccc(Cl)c1)c1ccc(C(F)(F)F)cc1 [Compound 2] showed an MIC [1, 3] of 161 µM (≈ 50 µg/mL).

For O=C(/C=C/c1c[nH]c2ccccc12)c1ccc(C(F)(F)F)cc1 [Compound 3], the MIC [1, 3] was 145 µM (≈ 45.7 µg/mL).

O=C(/C=C/c1ccccc1[N+](=O)[O-])c1ccc(C(F)(F)F)cc1 [Compound 4] showed an MIC [1, 3] of 156 µM (≈ 50.1 µg/mL).

For O=C(/C=C/c1cccc([N+](=O)[O-])c1)c1ccc(C(F)(F)F)cc1 [Compound 5], the MIC [1, 3] was 155 µM (≈ 49.8 µg/mL).

Compound O=C(/C=C/c1cccs1)c1ccc(C(F)(F)F)cc1 [Compound 6] has an MIC [1, 3] of 156 µM (≈ 44 µg/mL).

Work on O=C(/C=C/c1ccco1)c1ccc(C(F)(F)F)cc1 [Compound 7] yielded an MIC ([1]; Mycobacterium tuberculosis, H37RV, 120 h) of 177 µM (≈ 47.1 µg/mL).

In the case of O=C(/C=C/c1ccc(Cl)cc1)c1ccc(C(F)(F)F)cc1 [Compound 8], the MIC [1, 3] is reported as 188 µM (≈ 58.4 µg/mL).

With O=C(/C=C/c1ccc([N+](=O)[O-])cc1)c1ccc(C(F)(F)F)cc1 [Compound 9] the MIC [1, 3] was 189 µM (≈ 60.7 µg/mL).

Compound O=C(/C=C/c1ccc[nH]1)c1ccc(C(F)(F)F)cc1 [Compound 10] has an MIC [1, 3] of 40 µM (≈ 10.6 µg/mL).

With O=C(/C=C/c1cccc(Cl)c1Cl)c1ccc(OC(F)(F)F)cc1 [Compound 11] the MIC [1, 3] was 153 µM (≈ 55.3 µg/mL).

O=C(/C=C/c1cccc(Cl)c1)c1ccc(OC(F)(F)F)cc1 [Compound 12] showed an MIC [1, 3] of 153 µM (≈ 50 µg/mL).

O=C(/C=C/c1c[nH]c2ccccc12)c1ccc(OC(F)(F)F)cc1 [Compound 13] showed an MIC [1, 3] of 138 µM (≈ 45.7 µg/mL).

For O=C(/C=C/c1ccccc1[N+](=O)[O-])c1ccc(OC(F)(F)F)cc1 [Compound 14], the MIC [1, 3] was 148 µM (≈ 49.9 µg/mL).

With O=C(/C=C/c1cccc([N+](=O)[O-])c1)c1ccc(OC(F)(F)F)cc1 [Compound 15] the MIC [1, 3] was 148 µM (≈ 49.9 µg/mL).

For O=C(/C=C/c1cccs1)c1ccc(OC(F)(F)F)cc1 [Compound 16], the MIC [1, 3] was 148 µM (≈ 44.1 µg/mL).

Compound O=C(/C=C/c1ccco1)c1ccc(OC(F)(F)F)cc1 [Compound 17] has an MIC [1, 3] of 168 µM (≈ 47.4 µg/mL).

O=C(/C=C/c1ccc(Cl)cc1)c1ccc(OC(F)(F)F)cc1 [Compound 18] showed an MIC [1, 3] of 177 µM (≈ 57.8 µg/mL).

For O=C(/C=C/c1ccc([N+](=O)[O-])cc1)c1ccc(OC(F)(F)F)cc1 [Compound 19], the MIC [1, 3] was 178 µM (≈ 60 µg/mL).

O=C(/C=C/c1ccc[nH]1)c1ccc(OC(F)(F)F)cc1 [Compound 20] showed an MIC [1, 3] of 38 µM (≈ 10.7 µg/mL).

N#Cc1c(-c2cccc(Cl)c2Cl)cc(-c2ccc(C(F)(F)F)cc2)nc1N [Compound 21] gave an MIC [1, 3] of 33 µM (≈ 13.5 µg/mL).

With N#Cc1c(-c2cccc(Cl)c2)cc(-c2ccc(C(F)(F)F)cc2)nc1N [Compound 22] the MIC [1, 3] was 134 µM (≈ 50.1 µg/mL).

For N#Cc1c(-c2c[nH]c3ccccc23)cc(-c2ccc(C(F)(F)F)cc2)nc1N [Compound 23], the MIC [1, 3] was 31 µM (≈ 11.7 µg/mL).

With N#Cc1c(-c2ccccc2[N+](=O)[O-])cc(-c2ccc(C(F)(F)F)cc2)nc1N [Compound 24] the MIC [1, 3] was 33 µM (≈ 12.7 µg/mL).

N#Cc1c(-c2cccc([N+](=O)[O-])c2)cc(-c2ccc(C(F)(F)F)cc2)nc1N [Compound 25] gave an MIC [1, 3] of 130 µM (≈ 50 µg/mL).

With N#Cc1c(-c2cccs2)cc(-c2ccc(C(F)(F)F)cc2)nc1N [Compound 26] the MIC [1, 2] was 33 µM (≈ 11.4 µg/mL).

N#Cc1c(-c2cccs2)cc(-c2ccc(C(F)(F)F)cc2)nc1N [Compound 27] gave an MIC [1, 2] of 18 µM (≈ 6.22 µg/mL).

In the case of N#Cc1c(-c2ccc(Cl)cc2)cc(-c2ccc(C(F)(F)F)cc2)nc1N [Compound 28], the MIC [1, 3] is reported as 38 µM (≈ 14.2 µg/mL).

Work on N#Cc1c(-c2ccc([N+](=O)[O-])cc2)cc(-c2ccc(C(F)(F)F)cc2)nc1N [Compound 29] yielded an MIC [1, 3] of 152 µM (≈ 58.4 µg/mL).

Work on N#Cc1c(-c2ccc[nH]2)cc(-c2ccc(C(F)(F)F)cc2)nc1N [Compound 30] yielded an MIC [1, 2] of 17 µM (≈ 5.58 µg/mL) and an MIC [1, 3] of 16 to 18 µM (≈ 5.25 to 5.91 µg/mL).

With N#Cc1c(-c2cccc(Cl)c2Cl)cc(-c2ccc(OC(F)(F)F)cc2)nc1N [Compound 31] the MIC [1, 3] was 32 µM (≈ 13.6 µg/mL).

N#Cc1c(-c2cccc(Cl)c2)cc(-c2ccc(OC(F)(F)F)cc2)nc1N [Compound 32] showed an MIC [1, 3] of 128 µM (≈ 49.9 µg/mL).

With N#Cc1c(-c2c[nH]c3ccccc23)cc(-c2ccc(OC(F)(F)F)cc2)nc1N [Compound 33] the MIC [1, 2] was 30 µM (≈ 11.8 µg/mL).

Compound N#Cc1c(-c2ccccc2[N+](=O)[O-])cc(-c2ccc(OC(F)(F)F)cc2)nc1N [Compound 34] has an MIC [1, 3] of 31 µM (≈ 12.4 µg/mL).

N#Cc1c(-c2cccc([N+](=O)[O-])c2)cc(-c2ccc(OC(F)(F)F)cc2)nc1N [Compound 35] gave an MIC [1, 3] of 125 µM (≈ 50 µg/mL).

N#Cc1c(-c2cccs2)cc(-c2ccc(OC(F)(F)F)cc2)nc1N [Compound 36] gave an MIC [1, 2] of 31 µM (≈ 11.2 µg/mL).

In the case of N#Cc1c(-c2cccs2)cc(-c2ccc(OC(F)(F)F)cc2)nc1N [Compound 37], the MIC [1, 3] is reported as 17 µM (≈ 6.14 µg/mL).

N#Cc1c(-c2ccc(Cl)cc2)cc(-c2ccc(OC(F)(F)F)cc2)nc1N [Compound 38] gave an MIC [1, 3] of 36 µM (≈ 14 µg/mL).

Work on N#Cc1c(-c2ccc([N+](=O)[O-])cc2)cc(-c2ccc(OC(F)(F)F)cc2)nc1N [Compound 39] yielded an MIC [1, 3] of 145 µM (≈ 58 µg/mL).

In the case of N#Cc1c(-c2c[nH]c3ccccc23)cc(-c2ccc(OC(F)(F)F)cc2)nc1N [Compound 40], the “H37RV MIC” value [1, 2] is reported as ~ 8 µM, the MIC [1, 2] is reported as 8 µM (≈ 3.15 µg/mL) and the “Potency relative to pyrazinamide” value ([1]; ratio of MIC, H37RV) is reported as 3 fold. For the same compound, the IC50 (MTT cytotoxicity assay) was > 70 µg/mL.

N#CC1=C(N)OC(c2ccc(C(F)(F)F)cc2)=CC1c1ccccc1Cl (centres unmarked) [Compound 41] gave an MIC [1, 2] of 17 µM (≈ 6.41 µg/mL) and an MIC [1, 3] of 16 to 18 µM (≈ 6.03 to 6.78 µg/mL).

In the case of N#CC1=C(N)OC(c2ccc(C(F)(F)F)cc2)=CC1c1cccc(Cl)c1 (centres unmarked) [Compound 42], the MIC [1, 3] is reported as 133 µM (≈ 50.1 µg/mL).

With N#CC1=C(N)OC(c2ccc(C(F)(F)F)cc2)=CC1c1c[nH]c2ccccc12 (centres unmarked) [Compound 43] the MIC [1, 3] was 30 µM (≈ 11.4 µg/mL).

In the case of N#CC1=C(N)OC(c2ccc(C(F)(F)F)cc2)=CC1c1ccccc1[N+](=O)[O-] (centres unmarked) [Compound 44], the MIC [1, 3] is reported as 32 µM (≈ 12.4 µg/mL).

With N#CC1=C(N)OC(c2ccc(C(F)(F)F)cc2)=CC1c1cccc([N+](=O)[O-])c1 (centres unmarked) [Compound 45] the MIC [1, 3] was 129 µM (≈ 50 µg/mL).

Compound N#CC1=C(N)OC(c2ccc(C(F)(F)F)cc2)=CC1c1cccs1 (centres unmarked) [Compound 46] has an MIC [1, 3] of 32 µM (≈ 11.1 µg/mL).

For N#CC1=C(N)OC(c2ccc(C(F)(F)F)cc2)=CC1c1ccco1 (centres unmarked) [Compound 47], the MIC [1, 3] was 36 µM (≈ 12 µg/mL).

In the case of N#CC1=C(N)OC(c2ccc(C(F)(F)F)cc2)=CC1c1ccc(Cl)cc1 (centres unmarked) [Compound 48], the MIC [1, 3] is reported as 38 µM (≈ 14.3 µg/mL).

In the case of N#CC1=C(N)OC(c2ccc(C(F)(F)F)cc2)=CC1c1ccc([N+](=O)[O-])cc1 (centres unmarked) [Compound 49], the MIC [1, 3] is reported as 151 µM (≈ 58.5 µg/mL).

N#CC1=C(N)OC(c2ccc(C(F)(F)F)cc2)=CC1c1ccc[nH]1 (centres unmarked) [Compound 50] gave an MIC [1, 2] of 16 µM (≈ 5.3 µg/mL) and an MIC [1, 3] of 16 to 18 µM (≈ 5.3 to 5.96 µg/mL).

Compound N#CC1=C(N)OC(c2ccc(OC(F)(F)F)cc2)=CC1c1cccc(Cl)c1Cl (centres unmarked) [Compound 51] has an MIC [1, 2] of 16 µM (≈ 6.84 µg/mL) and an MIC [1, 3] of 16 to 18 µM (≈ 6.84 to 7.69 µg/mL).

Work on N#CC1=C(N)OC(c2ccc(OC(F)(F)F)cc2)=CC1c1cccc(Cl)c1 (centres unmarked) [Compound 52] yielded an MIC [1, 3] of 127 µM (≈ 49.9 µg/mL).

Work on N#CC1=C(N)OC(c2ccc(OC(F)(F)F)cc2)=CC1c1c[nH]c2ccccc12 (centres unmarked) [Compound 53] yielded an MIC [1, 3] of 29 µM (≈ 11.5 µg/mL).

N#CC1=C(N)OC(c2ccc(OC(F)(F)F)cc2)=CC1c1ccccc1[N+](=O)[O-] (centres unmarked) [Compound 54] gave an MIC [1, 3] of 31 µM (≈ 12.5 µg/mL).

In the case of N#CC1=C(N)OC(c2ccc(OC(F)(F)F)cc2)=CC1c1cccc([N+](=O)[O-])c1 (centres unmarked) [Compound 55], the MIC [1, 3] is reported as 124 µM (≈ 50 µg/mL).

N#CC1=C(N)OC(c2ccc(OC(F)(F)F)cc2)=CC1c1cccs1 (centres unmarked) [Compound 56] gave an MIC [1, 3] of 31 µM (≈ 11.3 µg/mL).

Work on N#CC1=C(N)OC(c2ccc(OC(F)(F)F)cc2)=CC1c1ccco1 (centres unmarked) [Compound 57] yielded an MIC [1, 3] of 34 µM (≈ 11.8 µg/mL).

Work on N#CC1=C(N)OC(c2ccc(OC(F)(F)F)cc2)=CC1c1ccc(Cl)cc1 (centres unmarked) [Compound 58] yielded an MIC [1, 3] of 36 µM (≈ 14.1 µg/mL).

In the case of N#CC1=C(N)OC(c2ccc(OC(F)(F)F)cc2)=CC1c1ccc([N+](=O)[O-])cc1 (centres unmarked) [Compound 59], the MIC [1, 3] is reported as 144 µM (≈ 58.1 µg/mL).

In the case of N#CC1=C(N)OC(c2ccc(OC(F)(F)F)cc2)=CC1c1ccc[nH]1 (centres unmarked) [Compound 60], the MIC [1, 2] is reported as 16 µM (≈ 5.56 µg/mL) and the MIC [1, 3] is reported as 16 to 18 µM (≈ 5.56 to 6.25 µg/mL).

In the case of NC(=O)c1cnccn1 [Pyrazinamide, reference compound], the MIC [1, 2] is reported as 25 µM (≈ 3.08 µg/mL) and the MIC [1, 3] is reported as ~25 µM (≈ 3.08 µg/mL).

[H]/N=C(/N)N[C@H]1[C@H](O)[C@@H](O)[C@H](O[C@@H]2O[C@@H](C)[C@](O)(C=O)[C@H]2O[C@@H]2O[C@@H](CO)[C@H](O)[C@@H](O)[C@@H]2NC)[C@@H](N/C(N)=N\[H])[C@@H]1O [Streptomycin, reference compound] gave an MIC [1, 2] of 11 µM (≈ 6.4 µg/mL) and an MIC [1, 3] of ~11 µM (≈ 6.4 µg/mL).
